Data reported in US20100298141A1, “SUBSTITUTED PYRIDINE N-OXIDE HERBICIDES” (E. I. DU PONT DE NEMOURS AND COMPANY, priority 2007, published 2010).

What was measured:
common mallow = assay: Test F preemergence test; format: in vivo, Malva sylvestris; details: scale 0 to 100
Source text: (§1) Seeds of plant species selected from bermudagrass (Cynodon dactylon), Surinam grass (Brachiaria decumbens), large crabgrass (Digitaria sanguinalis), green foxtail (Setaria viridis), goosegrass (Eleusine indica), johnsongrass (Sorghum halepense), kochia (Kochia scoparia), pitted morningglory (Ipomoea lacunosa), purple nutsedge (Cyperus rotundus), common ragweed (Ambrosia elation), mustard (Brassica nigra), guineagrass (Panicum maximum), […] (Paspalum dilatatum), barnyardgrass (Echinochloa crus-galli), southern sandbur (Cenchrus echinatus), common sowthistle (Sonchus oleraceous), prickly […] spinosa), Italian ryegrass (Lolium multiflorum), common purslane (Portulaca oleracea), broadleaf signalgrass (Brachiaria platyphylla), common groundsel (Senecio vulgaris), common chickweed (Stellaria media), Virginia dayflower (Commelina virginica), annual bluegrass (Poa annua), naked crabgrass (Digitaria nuda), […] cochinchinensis), quackgrass (Elytrigia repens), Canada horseweed (Conyza canadensis), field bindweed (Convolvulus arvensis), […] (Bidens bipinnata), common mallow (Malva sylvestris), Russian thistle (Salsola kali), and sugarcane (Saccharum officinarum) were planted and treated preemergence with test chemicals formulated in a non-phytotoxic solvent mixture which included a surfactant. At a different time, sugarcane was treated with postemergence applications of some of the test chemicals formulated in the same manner. Plants were approximately 3- to 4-leaf stage for the postemergence treatments. Treated plants and controls were maintained in a greenhouse for 14 to 21 days, after which time all species were compared to controls and visually evaluated. […] A dash (-) response means no test result.

field bindweed = assay: Test F preemergence test; format: in vivo, Convolvulus arvensis; details: scale 0 to 100
Source text: as §1

broadleaf signalgrass = assay: Test F preemergence test; format: in vivo, Brachiaria platyphylla; details: scale 0 to 100
Source text: as §1

kochia = assay: Test C pre-/postemergence test; format: in vivo, Kochia scoparia
Outline: (§2)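 Test chemicals were formulated with surfactant in a non-phytotoxic solvent and sprayed both on freshly planted seeds (preemergence) and on 1- to 4-leaf plants of 2–18 cm (postemergence). Flooded-paddy pots received compound directly into 3 cm of standing water, maintained for the test.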

velvetleaf = assay: Test C pre-/postemergence test; format: in vivo, Abutilon theophrasti
Outline: as §2

barnyardgrass [1] = assay: Test F preemergence test; format: in vivo, Echinochloa crus-galli
Source text: as §1

barnyardgrass [2] = assay: Test A pre-/postemergence greenhouse test; format: in vivo, Echinochloa crus-galli; details: for Plant response rating, Barnyardgrass: 0 to 100 scale where 0 is no effect and 100 is complete control; for Barnyardgrass plant response rating: 0 to 100 scale
Outline: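 Sowing in loam/sand; same-day pre (directed soil spray) and post (foliar, 1–2 leaf, 2–10 cm) treatment with surfactant-containing non-phytotoxic solvent formulation; ~10 days in greenhouse; eye-scored injury against untreated plants.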

dallisgrass = assay: Test F preemergence test; format: in vivo, Paspalum dilatatum; details: scale 0 to 100
Source text: as §1

cocklebur = assay: Test C pre-/postemergence test; format: in vivo, Xanthium strumarium
Outline: as §2

itchgrass = assay: Test F preemergence test; format: in vivo, Rottboellia cochinchinensis; details: scale 0 to 100
Source text: as §1

annual bluegrass = assay: Test F preemergence test; format: in vivo, Poa annua; details: scale 0 to 100
Source text: as §1

green foxtail = assay: Test F preemergence test; format: in vivo, Setaria viridis; details: scale 0 to 100
Source text: as §1

mustard = assay: Test F preemergence test; format: in vivo, Brassica nigra; details: scale 0 to 100
Source text: as §1

[3] = 125 g ai/ha, preemergence, scale 0 (no effect) to 100 (complete control)
[4] = Preemergence, 31 g ai/ha, scale 0 to 100 (0 no effect, 100 complete control)
[5] = preemergence, 250 g ai/ha, scale 0 (no effect) to 100 (complete control)
[6] = 62 g ai/ha, Preemergence, scale 0 to 100
[7] = Postemergence, 500 g ai/ha, 0 is no effect, 100 is complete control
[8] = Preemergence, 125 g ai/ha, 0 no effect, 100 complete control
[9] = Postemergence, 125 g ai/ha, 0 is no effect, 100 is complete control
[10] = preemergence, 125 g ai/ha, scale 0 (no effect) to 100 (complete control)
[11] = 31 g ai/ha, Preemergence, scale 0 to 100
[12] = Postemergence, 62 g ai/ha, scale 0 to 100, 0 no effect, 100 complete control
[13] = Postemergence, 125 g ai/ha, scale 0 to 100, 0 no effect, 100 complete control
[14] = Postemergence, 250 g ai/ha, scale 0 to 100, 0 no effect, 100 complete control

Cn1nc(OC(F)F)c(CS(=O)(=O)c2cccc[n+]2[O-])c1C(F)(F)F [Compound 80]
Plant response rating, Mallow (common mallow; 16 g ai/ha, preemergence): 0
Mallow plant response rating (common mallow; 62 g ai/ha, Preemergence): 0
Mallow plant response rating (common mallow; 125 g ai/ha, preemergence): 65
Plant response rating, Mallow (common mallow; Preemergence, 31 g ai/ha): 0
Plant response rating, Field Bindweed (field bindweed; 16 g ai/ha, preemergence): 0
Field Bindweed plant response rating (field bindweed; 62 g ai/ha, Preemergence): 0
Field Bindweed plant response rating (field bindweed; 125 g ai/ha, preemergence): 0
Plant response rating, Field Bindweed (field bindweed; Preemergence, 31 g ai/ha): 0
Plant response rating, Signalgrass (broadleaf signalgrass; 16 g ai/ha, preemergence): 25
Signalgrass plant response rating (broadleaf signalgrass; 125 g ai/ha, preemergence): 98
Plant response rating, Signalgrass (broadleaf signalgrass; Preemergence, 62 g ai/ha): 75
Plant response rating, Signalgrass (broadleaf signalgrass; Preemergence, 31 g ai/ha): 25
Kochia plant response rating (kochia; [3]): 70
Plant response rating, Kochia (kochia; [4]): 0
Kochia plant response rating (kochia; [5]): 100
Velvetleaf plant response rating (velvetleaf; [6]): 0
Velvetleaf plant response rating (velvetleaf; [3]): 60
Plant response rating, Velvetleaf (velvetleaf; [4]): 0
Velvetleaf plant response rating (velvetleaf; [5]): 65
Plant response rating, Barnyardgrass (barnyardgrass [1]; 16 g ai/ha, preemergence, scale 0 to 100 (0 no effect, 100 complete control)): 85
Barnyardgrass plant response rating (barnyardgrass [1]; [6]): 95
Barnyardgrass plant response rating (barnyardgrass [1]; 125 g ai/ha, preemergence, scale 0 to 100): 100
Plant response rating, Barnyardgrass (barnyardgrass [1]; Preemergence, 31 g ai/ha, scale 0 to 100): 90
Plant response rating, Barnyardgrass (barnyardgrass [2]; Postemergence, 125 g ai/ha): 80
Barnyardgrass plant response rating (barnyardgrass [2]; [7]): 90
Barnyardgrass plant response rating (barnyardgrass [2]; [8]): 90
Plant response rating, Barnyardgrass (barnyardgrass [2]; Preemergence, 500 g ai/ha): 100
Plant response rating, Dallisgrass (dallisgrass; 16 g ai/ha, preemergence): 40
Dallisgrass plant response rating (dallisgrass; 62 g ai/ha, Preemergence): 95
Dallisgrass plant response rating (dallisgrass; 125 g ai/ha, preemergence): 100
Plant response rating, Dallisgrass (dallisgrass; Preemergence, 31 g ai/ha): 80
Cocklebur plant response rating (cocklebur; [6]): 0
Cocklebur plant response rating (cocklebur; [3]): 45
Plant response rating, Cocklebur (cocklebur; [4]): 0
Cocklebur plant response rating (cocklebur; [5]): 80
Plant response rating, Itchgrass (itchgrass; 16 g ai/ha, preemergence): 10
Itchgrass plant response rating (itchgrass; 62 g ai/ha, Preemergence): 60
Itchgrass plant response rating (itchgrass; 125 g ai/ha, preemergence): 90
Plant response rating, Itchgrass (itchgrass; Preemergence, 31 g ai/ha): 20
Plant response rating, Bluegrass (annual bluegrass; 16 g ai/ha, preemergence): 25
Bluegrass plant response rating (annual bluegrass; 62 g ai/ha, Preemergence): 90
Bluegrass plant response rating (annual bluegrass; 125 g ai/ha, preemergence): 95
Plant response rating, Bluegrass (annual bluegrass; Preemergence, 31 g ai/ha): 25
Plant response rating, Foxtail, Green (green foxtail; 16 g ai/ha, preemergence): 30
Foxtail, Green plant response rating (green foxtail; 62 g ai/ha, Preemergence): 75
Foxtail, Green plant response rating (green foxtail; 125 g ai/ha, preemergence): 95
Plant response rating, Foxtail, Green (green foxtail; Preemergence, 31 g ai/ha): 75
Plant response rating, Black Mustard (mustard; 16 g ai/ha, preemergence): 0
Black Mustard plant response rating (mustard; 62 g ai/ha, Preemergence): 0
Black Mustard plant response rating (mustard; 125 g ai/ha, preemergence): 50
Plant response rating, Black Mustard (mustard; Preemergence, 31 g ai/ha): 0

Cn1nc(C(F)(F)F)c(CS(=O)(=O)c2cc(C(C)(C)C)cc[n+]2[O-])c1OC(F)F [Compound 25]
Plant response rating, Kochia (kochia; [4]): 0
Velvetleaf plant response rating (velvetleaf; [6]): 80
Plant response rating, Velvetleaf (velvetleaf; [4]): 20
Barnyardgrass plant response rating (barnyardgrass [2]; [9]): 40
Barnyardgrass plant response rating (barnyardgrass [2]; [7]): 50
Barnyardgrass plant response rating (barnyardgrass [2]; [8]): 90
Plant response rating, Barnyardgrass (barnyardgrass [2]; Preemergence, 500 g ai/ha): 100
Cocklebur plant response rating (cocklebur; [6]): 0
Plant response rating, Cocklebur (cocklebur; [4]): 0
Plant response rating (0 to 100), Cocklebur (cocklebur; Preemergence, 250 g ai/ha): 0
Cocklebur plant response rating (cocklebur; [10]): 0

Cn1nc(C(F)(F)F)c(C[S+]([O-])c2ccc(Cl)c[n+]2[O-])c1Cl (racemic) [Compound 17]
Kochia plant response rating (kochia; [6]): 100
Plant response rating, Kochia (kochia; [4]): 80
Velvetleaf plant response rating (velvetleaf; [6]): 80
Plant response rating, Velvetleaf (velvetleaf; [4]): 0
Barnyardgrass plant response rating (barnyardgrass [2]; [9]): 80
Barnyardgrass plant response rating (barnyardgrass [2]; [7]): 90
Barnyardgrass plant response rating (barnyardgrass [2]; [8]): 70
Plant response rating, Barnyardgrass (barnyardgrass [2]; Preemergence, 500 g ai/ha): 100
Cocklebur plant response rating (cocklebur; [6]): 0
Plant response rating, Cocklebur (cocklebur; [4]): 0
Cocklebur plant response rating (cocklebur; [10]): 0

Cn1nc(C(F)(F)F)c(C[S+]([O-])c2ccc(F)c[n+]2[O-])c1Cl (stereo not drawn) [Compound 54]
Kochia plant response rating (kochia; [6]): 100
Kochia plant response rating (kochia; [3]): 100
Plant response rating, Kochia (kochia; [4]): 50
Kochia plant response rating (kochia; [5]): 100
Velvetleaf plant response rating (velvetleaf; [6]): 0
Velvetleaf plant response rating (velvetleaf; [3]): 5
Plant response rating, Velvetleaf (velvetleaf; [4]): 0
Velvetleaf plant response rating (velvetleaf; [5]): 85
Plant response rating, Barnyardgrass (barnyardgrass [2]; Postemergence, 125 g ai/ha): 70
Barnyardgrass plant response rating (barnyardgrass [2]; [7]): 80
Barnyardgrass plant response rating (barnyardgrass [2]; [8]): 80
Plant response rating, Barnyardgrass (barnyardgrass [2]; Preemergence, 500 g ai/ha): 90
Cocklebur plant response rating (cocklebur; [6]): 0
Cocklebur plant response rating (cocklebur; [3]): 0
Plant response rating, Cocklebur (cocklebur; [4]): 0
Cocklebur plant response rating (cocklebur; [5]): 0

Cn1nc(C(F)(F)F)c(CS(=O)(=O)c2cccc[n+]2[O-])c1Cl [Compound 9]
Kochia plant response rating (kochia; [11]): 0
Plant response rating (0 to 100), Kochia (kochia; Preemergence, 250 g ai/ha): 100
Kochia plant response rating (kochia; [10]): 100
Plant response rating (0 to 100), Velvetleaf (velvetleaf; Preemergence, 250 g ai/ha): 40
Velvetleaf plant response rating (velvetleaf; [10]): 0
Barnyardgrass plant response rating (barnyardgrass [2]; [9]): 80
Barnyardgrass plant response rating (barnyardgrass [2]; [7]): 80
Barnyardgrass plant response rating (barnyardgrass [2]; [8]): 100
Plant response rating, Barnyardgrass (barnyardgrass [2]; Preemergence, 500 g ai/ha): 100
Cocklebur plant response rating (cocklebur; [11]): 0
Plant response rating (0 to 100), Cocklebur (cocklebur; Preemergence, 250 g ai/ha): 0
Cocklebur plant response rating (cocklebur; [10]): 0

Cn1nc(C(F)(F)F)c(C[S+]([O-])c2cccc[n+]2[O-])c1OCC(F)(F)C(F)(F)F (stereo not drawn) [Compound 78]
Plant response rating (0 to 100), Kochia (kochia; Postemergence, 31 g ai/ha): 0
Plant response rating, Kochia (kochia; [12]): 0
Plant response rating, Kochia (kochia; [13]): 0
Plant response rating, Kochia (kochia; [14]): 0
Plant response rating (0 to 100), Velvetleaf (velvetleaf; Postemergence, 31 g ai/ha): 0
Plant response rating (0 to 100), Velvetleaf (velvetleaf; Postemergence, 62 g ai/ha): 0
Plant response rating, Velvetleaf (velvetleaf; [13]): 0
Plant response rating, Velvetleaf (velvetleaf; [14]): 20
Plant response rating, Barnyardgrass (barnyardgrass [2]; Postemergence, 125 g ai/ha): 80
Barnyardgrass plant response rating (barnyardgrass [2]; [7]): 80
Barnyardgrass plant response rating (barnyardgrass [2]; [8]): 70
Plant response rating, Barnyardgrass (barnyardgrass [2]; Preemergence, 500 g ai/ha): 100
Plant response rating (0 to 100), Cocklebur (cocklebur; Postemergence, 31 g ai/ha): 0
Plant response rating, Cocklebur (cocklebur; [12]): 0
Plant response rating, Cocklebur (cocklebur; [13]): 0
Plant response rating, Cocklebur (cocklebur; [14]): 0
